{"source": "patent US20040110763A1", "about": "“Pyrazolopyridine compound and pharmaceutical use thereof” (priority 2000, published 2004)", "data": [{"units": {"melting point": "°C"}, "values": [{"smiles": "CC(C)n1nc(-c2c(-c3ccccc3)nn3ccc(OCCN4CCCC4)cc23)ccc1=O", "note": "[Example 17, 5-[2-(1-Pyrrolidinyl)ethoxy]-3-(3-oxo-2-isopropyl-2,3-dihydropyridazin-6-yl)-2-phenylpyrazolo[1,5-a]pyridine]", "melting point": "149 to 150"}, {"smiles": "COCN(COC)c1ccn2nc(-c3ccccc3)c(-c3ccc(=O)n(C(C)C)n3)c2c1", "note": "[Example 154, 5-[bis(methoxymethyl)amino]-3-(3-oxo-2-isopropyl-2,3-dihydropyridazin-6-yl)-2-phenylpyrazolo[1,5-a]pyridine]", "melting point": "148 to 150"}, {"smiles": "CC(C)n1nc(-c2c(-c3ccccc3)nn3ccc(C(=O)NC4CC4)cc23)ccc1=O", "note": "[Example 139, N-cyclopropyl-3-(3-oxo-2-isopropyl-2,3-dihydropyridazin-6-yl)-2-phenylpyrazolo[1,5-a]pyridine-5-carboxamide]", "melting point": "184 to 185"}, {"smiles": "CC(C)n1nc(-c2c(-c3ccccc3)nn3ccc(N4CCN(C(=O)CN(C)C)CC4)cc23)ccc1=O", "note": "[Example 114, 5-{4-[(dimethylamino)acetyl]-1-piperazinyl}-3-(3-oxo-2-isopropyl-2,3-dihydropyridazin-6-yl)-2-phenylpyrazolo[1,5-a]pyridine]", "melting point": "129 to 130"}, {"smiles": "COc1ccn2nc(-c3ccccc3)c(-c3ccc(=O)n([C@H]4CCOC4)n3)c2c1", "note": "[Example 120, 5-Methoxy-3-[3-oxo-2-((3S)-tetrahydrofuran-3-yl)-2,3-dihydropyridazin-6-yl]-2-phenylpyrazolo[1,5-a]pyridine]", "melting point": "194 to 195"}, {"smiles": "CCN(CC)C(=O)COc1ccn2nc(-c3ccccc3)c(-c3ccc(=O)n(C(C)C)n3)c2c1", "note": "[Example 41, N,N-Diethyl-2-{[3-(3-oxo-2-isopropyl-2,3-dihydropyridazin-6-yl)-2-phenylpyrazolo[1,5-a]pyridin-5-yl]oxy}acetamide]", "melting point": "125 to 126.5"}, {"smiles": "CCN(CC)C(=O)c1ccn2nc(-c3ccccc3)c(-c3ccc(=O)n(C(C)C)n3)c2c1", "note": "[Example 85, N,N-Diethyl-3-(3-oxo-2-isopropyl-2,3-dihydropyridazin-6-yl)-2-phenylpyrazolo[1,5-a]pyridine-5-carboxamide]", "melting point": "157 to 158"}, {"smiles": "CC(C)n1nc(-c2c(-c3ccccc3)nn3ccc(C#N)cc23)ccc1=O", "note": "[Example 71, 3-(3-oxo-2-isopropyl-2,3-dihydropyridazin-6-yl)-2-phenylpyrazolo[1,5-a]pyridine-5-carbonitrile]", "melting point": "202 to 203"}, {"smiles": "CC(C)n1nc(-c2c(-c3ccccc3)nn3c(N)cccc23)ccc1=O", "note": "[Example 134, 7-Amino-3-(3-oxo-2-isopropyl-2,3-dihydropyridazin-6-yl)-2-phenylpyrazolo[1,5-a]pyridine]", "melting point": "218 to 219"}, {"smiles": "CC(C)n1nc(-c2c(-c3ccccc3)nn3ccc(OCCN4CCCCC4)cc23)ccc1=O", "note": "[Example 16, 5-[2-(1-Piperidinyl)ethoxy]-3-(3-oxo-2-isopropyl-2,3-dihydropyridazin-6-yl)-2-phenylpyrazolo[1,5-a]pyridine]", "melting point": "144 to 144.5"}, {"smiles": "CC(C)n1nc(-c2c(-c3ccccc3)nn3ccc(OCC(=O)NC4CCCCC4)cc23)ccc1=O", "note": "[Example 63, N-Cyclohexyl-2-{[3-(3-oxo-2-isopropyl-2,3-dihydropyridazin-6-yl)-2-phenylpyrazolo[1,5-a]pyridin-5-yl]oxy}acetamide]", "melting point": "170 to 171.5"}, {"smiles": "COc1ccn2nc(-c3ccccc3)c(-c3ccc(=O)n(C4CCOCC4)n3)c2c1", "note": "[Example 124, 5-Methoxy-3-[3-oxo-2-(tetrahydropyran-4-yl)-2,3-dihydropyridazin-6-yl]-2-phenylpyrazolo[1,5-a]pyridine]", "melting point": "224 to 225"}, {"smiles": "CC(C)n1nc(-c2c(-c3ccccc3)nn3ccc(OCCN4CC4)cc23)ccc1=O", "melting point": "159 to 160"}, {"smiles": "CC(C)n1nc(-c2c(-c3ccccc3)nn3ccc(OCc4cccnc4)cc23)ccc1=O", "note": "[Example 20, 5-(3-Pyridinylmethoxy)-3-(3-oxo-2-isopropyl-2,3-dihydropyridazin-6-yl)-2-phenylpyrazolo[1,5-a]pyridine]", "melting point": "145 to 146"}, {"smiles": "CC(C)n1nc(-c2c(-c3ccccc3)nn3ccc(C#Cc4ccccc4)cc23)ccc1=O", "note": "[Example 138, 5-Phenylethynyl-3-(3-oxo-2-isopropyl-2,3-dihydropyridazin-6-yl)-2-phenylpyrazolo[1,5-a]pyridine]", "melting point": "185 to 186"}, {"smiles": "CC(C)n1nc(-c2c(-c3ccccc3)nn3ccc(C(=O)NCc4cccnc4)cc23)ccc1=O", "note": "[Example 87, N-(3-Pyridinylmethyl)-3-(3-oxo-2-isopropyl-2,3-dihydropyridazin-6-yl)-2-phenylpyrazolo[1,5-a]pyridine-5-carboxamide]", "melting point": "192 to 193"}, {"smiles": "CCOc1cccn2nc(-c3ccccc3)c(-c3ccc(=O)n(C(C)C)n3)c12", "note": "[Example 196, 4-ethoxy-3-(3-oxo-2-isopropyl-2,3-dihydropyridazin-6-yl)-2-phenylpyrazolo[1,5-a]pyridine]", "melting point": "157 to 158"}, {"smiles": "CC(C)n1nc(-c2c(-c3ccccc3)nn3ccc(N4CCN(S(C)(=O)=O)CC4)cc23)ccc1=O", "note": "[Example 110, 5-[4-(Methylsulfonyl)-1-piperazinyl]-3-(3-oxo-2-isopropyl-2,3-dihydropyridazin-6-yl)-2-phenylpyrazolo[1,5-a]pyridine]", "melting point": "219 to 220"}, {"smiles": "CC(C)n1nc(-c2c(-c3ccccc3)nn3ccc(N4CCOCC4)cc23)ccc1=O", "note": "[Example 98, 5-(4-Morpholinyl)-3-(3-oxo-2-isopropyl-2,3-dihydropyridazin-6-yl)-2-phenylpyrazolo[1,5-a]pyridine]", "melting point": "182 to 187"}, {"smiles": "CCN(CC)CCOc1ccn2nc(-c3ccccc3)c(-c3ccc(=O)n(C(C)C)n3)c2c1", "note": "[Example 25, 5-[2-(Diethylamino)ethoxy]-3-(3-oxo-2-isopropyl-2,3-dihydropyridazin-6-yl)-2-phenylpyrazolo[1,5-a]pyridine]", "melting point": "92.5 to 94.5"}, {"smiles": "CC(C)n1nc(-c2c(-c3ccccc3)nn3ccc(OCC(=O)Nc4ccccc4)cc23)ccc1=O", "note": "[Example 44, 2-{[3-(3-Oxo-2-isopropyl-2,3-dihydropyridazin-6-yl)-2-phenylpyrazolo[1,5-a]pyridin-5-yl]oxy}-N-phenylacetamide]", "melting point": "208 to 209"}, {"smiles": "CC(C)n1nc(-c2c(-c3ccccc3)nn3ccc(C(=O)NC(C)(C)C)cc23)ccc1=O", "note": "[Example 83, N-(tert-Butyl)-3-(3-oxo-2-isopropyl-2,3-dihydropyridazin-6-yl)-2-phenylpyrazolo[1,5-a]pyridine-5-carboxamide]", "melting point": "200 to 201"}, {"smiles": "CC(C)n1nc(-c2c(-c3ccccc3)nn3ccc(OCCc4ccccc4)cc23)ccc1=O", "note": "[Example 9, 5-Phenethyloxy-3-(3-oxo-2-isopropyl-2,3-dihydropyridazin-6-yl)-2-phenylpyrazolo[1,5-a]pyridine]", "melting point": "154.5 to 155.5"}, {"smiles": "CC(C)n1nc(-c2c(-c3ccccc3)nn3ccc(Oc4ccc([N+](=O)[O-])cn4)cc23)ccc1=O", "note": "[Example 48, 5-[(5-Nitro-2-pyridinyl)oxy]-3-(3-oxo-2-isopropyl-2,3-dihydropyridazin-6-yl)-2-phenylpyrazolo[1,5-a]pyridine]", "melting point": "182 to 183.5"}, {"smiles": "CC(C)n1nc(-c2c(-c3ccccc3)nn3ccc(N4CCCC4=O)cc23)ccc1=O", "note": "[Example 153, 5-(2-oxo-1-pyrrolidinyl)-3-(3-oxo-2-isopropyl-2,3-dihydropyridazin-6-yl)-2-phenylpyrazolo [1,5-a]pyridine]", "melting point": "266 to 267"}, {"smiles": "COCCNC(=O)COc1ccn2nc(-c3ccccc3)c(-c3ccc(=O)n(C(C)C)n3)c2c1", "note": "[Example 66, N-(2-Methoxyethyl)-2-[{3-(3-oxo-2-isopropyl-2,3-dihydropyridazin-6-yl)-2-phenylpyrazolo[1,5-a]pyridin-5-yl}oxy]acetamide]", "melting point": "144.5 to 145.5"}, {"smiles": "CC(C)n1nc(-c2c(-c3ccccc3)nn3ccc(OCC(=O)NCCc4ccccn4)cc23)ccc1=O", "note": "[Example 60, 2-{[3-(3-oxo-2-isopropyl-2,3-dihydropyridazin-6-yl)-2-phenylpyrazolo[1,5-a)pyridin-5-yl]oxy}-N-[2-(2-pyridinyl)-ethyl]acetamide]", "melting point": "188 to 190"}, {"smiles": "CC(C)n1nc(-c2c(-c3ccccc3)nn3ccc(OCCN4C[C@@H](C)O[C@@H](C)C4)cc23)ccc1=O", "note": "[Example 24, 5-[2-{(2R,6S)-2,6-Dimethyl-4-morpholinyl}ethoxy]-3-(3-oxo-2-isopropyl-2,3-dihydropyridazin-6-yl)-2-phenylpyrazolo[1,5-a]pyridine]", "melting point": "157.5 to 158"}, {"smiles": "CC(C)CNC(=O)COc1ccn2nc(-c3ccccc3)c(-c3ccc(=O)n(C(C)C)n3)c2c1", "note": "[Example 45, N-Isobutyl-2-{[3-(3-oxo-2-isopropyl-2,3-dihydropyridazin-6-yl)-2-phenylpyrazolo [1,5-a]pyridin-5-yl]oxy}acetamide]", "melting point": "167.5 to 168.5"}, {"smiles": "CCOC(=O)COc1ccn2nc(-c3ccccc3)c(-c3ccc(=O)n(C(C)C)n3)c2c1", "note": "[Example 38, Ethyl {[3-(3-oxo-2-isopropyl-2,3-dihydropyridazin-6-yl)-2-phenylpyrazolo[1,5-a]pyridin-5-yl]oxy}acetate]", "melting point": "193 to 194"}, {"smiles": "CC(C)n1nc(-c2c(-c3ccccc3)nn3ccc(N4CCN(S(=O)(=O)c5ccccc5)CC4)cc23)ccc1=O", "note": "[Example 111, 5-[4-(Phenylsulfonyl)-1-piperazinyl]-3-(3-oxo-2-isopropyl-2,3-dihydropyridazin-6-yl)-2-phenylpyrazolo[1,5-a]pyridine]", "melting point": "219 to 220"}, {"smiles": "COc1cccc(CNC(=O)COc2ccn3nc(-c4ccccc4)c(-c4ccc(=O)n(C(C)C)n4)c3c2)c1", "note": "[Example 59, 2-{[3-(3-Oxo-2-isopropyl-2,3-dihydropyridazin-6-yl)-2-phenylpyrazolo[1,5-a]pyridin-5-yl]oxy}-N-(3-methoxybenzyl)acetamide]", "melting point": "166 to 167.5"}, {"smiles": "COC(=O)c1ccn2nc(-c3ccccc3)c(-c3ccc(=O)n(C(C)C)n3)c2c1", "note": "[Example 69, methyl 3-(3-oxo-2-isopropyl-2,3-dihydropyridazin-6-yl)-2-phenylpyrazolo[1,5-a]pyridine-5-carboxylate]", "melting point": "186 to 187"}]}]}
